Converted amounts (≈) assume the structure as drawn.
Key:
[1] = Aqueous solubility of the compound; format: physicochemical; conditions: buffer
[2] = Permeability by PAMPA assay; format: ADME; conditions: read-out: permeability
Aurora kinase A = molecular target: T1, Aurora kinase A (Homo sapiens, UniProt O14965)
T1 sequence (O14965 whole entry): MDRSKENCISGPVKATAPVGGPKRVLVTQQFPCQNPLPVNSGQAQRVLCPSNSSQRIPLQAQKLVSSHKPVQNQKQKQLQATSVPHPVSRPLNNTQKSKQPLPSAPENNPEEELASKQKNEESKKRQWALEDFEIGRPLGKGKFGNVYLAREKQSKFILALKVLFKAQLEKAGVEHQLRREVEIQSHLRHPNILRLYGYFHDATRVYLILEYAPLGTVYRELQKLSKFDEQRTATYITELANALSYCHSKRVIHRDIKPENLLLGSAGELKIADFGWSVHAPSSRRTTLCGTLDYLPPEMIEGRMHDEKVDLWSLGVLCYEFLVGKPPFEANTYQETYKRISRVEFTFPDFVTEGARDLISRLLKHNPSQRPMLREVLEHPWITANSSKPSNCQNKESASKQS
Description: Inhibition of human recombinant Aurora A expressed in baculovirus system

[3] = molecular target: Voltage-gated inwardly rectifying potassium channel KCNH2 (Homo sapiens, UniProt Q12809); assay: (§1) Inhibition of human ERG at 10 uM; conditions: 10 µM
[4] = Oral bioavailability in BALB/c mouse at 5 mg/kg; format: ADME, organism-based; conditions: in vivo
HCT-116 [5] = assay: Growth inhibition of human HCT116 cells after 72 hrs by MTT assay; format: functional; conditions: HCT-116, 72 h
[6] = Metabolic stability in CD1 mouse liver microsomes assessed as compound remaining at 10 uM after 30 mins by LC-MS/MS analysis; format: ADME, Microsome; conditions: read-out: Stability
HCT-116 [7] = assay: Growth inhibition of human HCT116 cells at 10 uM after 72 hrs by MTT assay; format: functional; conditions: HCT-116, 72 h, read-out: GI
[8] = molecular target: Aurora kinase B (Homo sapiens) (UniProt Q96GD4); assay: Inhibition of Aurora B at 1 uM
[9] = molecular target: Angiopoietin-1 receptor (Homo sapiens) (UniProt Q02763); assay: Inhibition of TEK at 1 uM
[10] = molecular target: Vascular endothelial growth factor receptor 2 (Homo sapiens) (UniProt P35968); assay: Inhibition of KDR at 1 uM
[11] = molecular target: High affinity nerve growth factor receptor (Homo sapiens) (UniProt P04629); assay: Inhibition of NTRK1 at 1 uM
[12] = molecular target: Hepatocyte growth factor receptor (Homo sapiens) (UniProt P08581); assay: Inhibition of MET at 1 uM
hERG (KCNH2) = hERG (KCNH2) (Homo sapiens, UniProt Q12809); assay: as §1
[13] = molecular target: T2, Ephrin type-B receptor 4 (Homo sapiens) (UniProt P54760); assay: Inhibition of EPHB4 at 1 uM
T2 sequence (whole entry): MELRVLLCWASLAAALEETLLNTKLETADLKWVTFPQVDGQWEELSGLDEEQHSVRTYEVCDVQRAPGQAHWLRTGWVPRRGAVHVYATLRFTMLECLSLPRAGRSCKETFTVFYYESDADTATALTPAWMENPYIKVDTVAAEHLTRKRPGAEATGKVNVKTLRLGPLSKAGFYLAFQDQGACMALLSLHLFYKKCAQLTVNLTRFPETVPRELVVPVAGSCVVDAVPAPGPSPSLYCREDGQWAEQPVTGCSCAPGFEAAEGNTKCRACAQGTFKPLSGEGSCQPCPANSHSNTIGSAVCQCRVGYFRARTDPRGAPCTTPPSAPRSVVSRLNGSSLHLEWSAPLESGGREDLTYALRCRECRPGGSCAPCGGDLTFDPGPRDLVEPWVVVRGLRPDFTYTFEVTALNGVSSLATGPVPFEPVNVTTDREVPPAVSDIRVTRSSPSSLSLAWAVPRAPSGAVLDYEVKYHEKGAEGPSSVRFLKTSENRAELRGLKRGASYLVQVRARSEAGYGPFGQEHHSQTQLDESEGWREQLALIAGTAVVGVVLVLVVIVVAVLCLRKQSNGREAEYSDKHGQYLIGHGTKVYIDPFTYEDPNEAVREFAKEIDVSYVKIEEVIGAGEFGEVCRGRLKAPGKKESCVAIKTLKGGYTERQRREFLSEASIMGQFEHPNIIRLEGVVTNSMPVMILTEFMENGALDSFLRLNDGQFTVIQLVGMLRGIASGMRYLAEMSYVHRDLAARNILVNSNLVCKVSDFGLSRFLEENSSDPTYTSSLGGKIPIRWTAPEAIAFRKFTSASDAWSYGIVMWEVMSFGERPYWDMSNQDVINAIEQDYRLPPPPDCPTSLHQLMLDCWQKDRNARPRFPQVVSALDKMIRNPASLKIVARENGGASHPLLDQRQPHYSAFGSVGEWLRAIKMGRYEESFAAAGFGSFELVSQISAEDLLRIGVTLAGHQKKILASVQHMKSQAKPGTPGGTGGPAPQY

[14] = molecular target: Platelet-derived growth factor receptor beta (Homo sapiens) (UniProt P09619); assay: Inhibition of PDGFRbeta at 1 uM
[15] = molecular target: Vascular endothelial growth factor receptor 1 (Homo sapiens) (UniProt P17948); assay: Inhibition of FLT1 at 1 uM
[16] = molecular target: Tyrosine-protein kinase Lck (Homo sapiens) (UniProt P06239); assay: Inhibition of LCK at 1 uM
[17] = molecular target: T3, Aurora kinase A (Homo sapiens) (UniProt O14965); assay: Inhibition of Aurora A at 1 uM
T3 sequence (whole entry): T1 sequence (O14965 whole entry)

Chain of Platelet-derived growth factor receptor beta (Homo sapiens) (P09619 whole entry): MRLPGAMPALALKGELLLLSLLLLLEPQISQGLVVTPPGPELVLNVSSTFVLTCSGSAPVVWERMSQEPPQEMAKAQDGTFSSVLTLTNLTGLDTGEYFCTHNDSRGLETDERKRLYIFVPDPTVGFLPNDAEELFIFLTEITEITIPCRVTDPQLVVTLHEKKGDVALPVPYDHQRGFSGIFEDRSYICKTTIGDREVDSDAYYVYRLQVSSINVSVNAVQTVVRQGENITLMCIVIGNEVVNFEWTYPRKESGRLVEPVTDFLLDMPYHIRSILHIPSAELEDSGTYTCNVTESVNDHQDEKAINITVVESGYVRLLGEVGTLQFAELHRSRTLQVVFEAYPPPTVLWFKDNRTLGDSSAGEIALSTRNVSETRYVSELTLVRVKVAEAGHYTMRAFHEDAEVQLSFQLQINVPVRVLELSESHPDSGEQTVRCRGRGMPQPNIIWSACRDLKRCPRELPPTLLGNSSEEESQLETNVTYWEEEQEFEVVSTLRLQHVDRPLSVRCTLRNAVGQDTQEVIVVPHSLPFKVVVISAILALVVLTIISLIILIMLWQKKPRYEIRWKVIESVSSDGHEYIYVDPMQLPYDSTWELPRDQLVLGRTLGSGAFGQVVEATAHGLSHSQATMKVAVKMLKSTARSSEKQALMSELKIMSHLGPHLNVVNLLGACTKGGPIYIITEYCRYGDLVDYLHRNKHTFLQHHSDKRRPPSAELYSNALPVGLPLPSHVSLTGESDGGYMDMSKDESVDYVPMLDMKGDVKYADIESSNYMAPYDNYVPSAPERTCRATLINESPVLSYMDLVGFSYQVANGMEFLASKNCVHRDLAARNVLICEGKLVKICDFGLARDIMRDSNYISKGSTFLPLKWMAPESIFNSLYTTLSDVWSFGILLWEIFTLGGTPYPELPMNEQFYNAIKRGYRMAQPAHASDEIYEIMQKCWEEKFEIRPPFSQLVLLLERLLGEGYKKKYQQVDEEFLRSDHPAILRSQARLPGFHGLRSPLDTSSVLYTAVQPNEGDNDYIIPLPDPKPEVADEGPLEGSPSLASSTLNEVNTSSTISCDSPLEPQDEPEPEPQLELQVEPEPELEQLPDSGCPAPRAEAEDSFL
Chain of Aurora kinase B (Homo sapiens) (Q96GD4 whole entry): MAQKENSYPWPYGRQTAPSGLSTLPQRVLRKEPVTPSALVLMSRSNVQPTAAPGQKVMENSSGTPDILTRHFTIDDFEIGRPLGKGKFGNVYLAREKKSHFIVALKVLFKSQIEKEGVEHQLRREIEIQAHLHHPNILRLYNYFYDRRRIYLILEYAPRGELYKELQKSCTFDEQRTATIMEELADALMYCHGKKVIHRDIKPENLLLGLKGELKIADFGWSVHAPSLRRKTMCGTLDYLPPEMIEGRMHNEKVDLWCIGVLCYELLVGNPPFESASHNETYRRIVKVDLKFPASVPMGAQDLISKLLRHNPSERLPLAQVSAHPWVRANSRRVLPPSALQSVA
Chain of Hepatocyte growth factor receptor (Homo sapiens) (P08581 whole entry): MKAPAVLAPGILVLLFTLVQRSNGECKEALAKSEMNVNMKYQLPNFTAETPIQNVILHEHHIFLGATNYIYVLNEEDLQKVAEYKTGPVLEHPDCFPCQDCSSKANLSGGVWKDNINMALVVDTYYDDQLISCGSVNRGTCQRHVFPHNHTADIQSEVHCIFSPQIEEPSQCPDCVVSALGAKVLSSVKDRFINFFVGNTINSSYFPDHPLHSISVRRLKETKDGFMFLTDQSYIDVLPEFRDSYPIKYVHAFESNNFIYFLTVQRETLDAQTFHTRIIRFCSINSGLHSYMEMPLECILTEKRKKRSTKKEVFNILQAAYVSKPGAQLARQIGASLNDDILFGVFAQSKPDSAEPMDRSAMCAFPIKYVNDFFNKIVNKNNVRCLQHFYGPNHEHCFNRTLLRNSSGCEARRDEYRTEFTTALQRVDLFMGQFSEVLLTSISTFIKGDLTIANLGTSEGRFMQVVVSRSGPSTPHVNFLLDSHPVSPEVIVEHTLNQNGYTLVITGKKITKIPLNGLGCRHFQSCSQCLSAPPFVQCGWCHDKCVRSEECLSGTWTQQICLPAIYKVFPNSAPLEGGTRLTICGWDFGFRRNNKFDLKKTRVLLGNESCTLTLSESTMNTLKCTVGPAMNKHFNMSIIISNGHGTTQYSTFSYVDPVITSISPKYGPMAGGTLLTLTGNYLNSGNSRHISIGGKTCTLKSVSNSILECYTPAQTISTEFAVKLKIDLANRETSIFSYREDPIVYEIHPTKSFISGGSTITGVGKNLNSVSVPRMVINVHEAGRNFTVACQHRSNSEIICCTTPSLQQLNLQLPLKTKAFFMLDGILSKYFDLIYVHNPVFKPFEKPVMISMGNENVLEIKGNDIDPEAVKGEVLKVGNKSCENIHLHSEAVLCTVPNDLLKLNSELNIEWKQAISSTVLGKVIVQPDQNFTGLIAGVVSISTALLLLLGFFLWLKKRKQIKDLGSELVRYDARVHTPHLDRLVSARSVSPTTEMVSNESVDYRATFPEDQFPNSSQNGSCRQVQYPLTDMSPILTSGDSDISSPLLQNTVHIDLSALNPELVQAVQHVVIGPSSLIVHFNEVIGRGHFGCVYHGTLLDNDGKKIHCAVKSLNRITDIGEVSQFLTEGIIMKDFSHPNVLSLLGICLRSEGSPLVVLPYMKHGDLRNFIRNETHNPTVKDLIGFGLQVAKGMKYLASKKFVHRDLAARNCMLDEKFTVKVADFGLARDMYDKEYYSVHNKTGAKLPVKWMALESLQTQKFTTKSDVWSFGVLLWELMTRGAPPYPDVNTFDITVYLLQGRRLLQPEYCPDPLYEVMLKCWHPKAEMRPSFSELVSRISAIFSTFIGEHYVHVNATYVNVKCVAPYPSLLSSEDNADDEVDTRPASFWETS
Chain of Vascular endothelial growth factor receptor 1 (Homo sapiens) (P17948 whole entry): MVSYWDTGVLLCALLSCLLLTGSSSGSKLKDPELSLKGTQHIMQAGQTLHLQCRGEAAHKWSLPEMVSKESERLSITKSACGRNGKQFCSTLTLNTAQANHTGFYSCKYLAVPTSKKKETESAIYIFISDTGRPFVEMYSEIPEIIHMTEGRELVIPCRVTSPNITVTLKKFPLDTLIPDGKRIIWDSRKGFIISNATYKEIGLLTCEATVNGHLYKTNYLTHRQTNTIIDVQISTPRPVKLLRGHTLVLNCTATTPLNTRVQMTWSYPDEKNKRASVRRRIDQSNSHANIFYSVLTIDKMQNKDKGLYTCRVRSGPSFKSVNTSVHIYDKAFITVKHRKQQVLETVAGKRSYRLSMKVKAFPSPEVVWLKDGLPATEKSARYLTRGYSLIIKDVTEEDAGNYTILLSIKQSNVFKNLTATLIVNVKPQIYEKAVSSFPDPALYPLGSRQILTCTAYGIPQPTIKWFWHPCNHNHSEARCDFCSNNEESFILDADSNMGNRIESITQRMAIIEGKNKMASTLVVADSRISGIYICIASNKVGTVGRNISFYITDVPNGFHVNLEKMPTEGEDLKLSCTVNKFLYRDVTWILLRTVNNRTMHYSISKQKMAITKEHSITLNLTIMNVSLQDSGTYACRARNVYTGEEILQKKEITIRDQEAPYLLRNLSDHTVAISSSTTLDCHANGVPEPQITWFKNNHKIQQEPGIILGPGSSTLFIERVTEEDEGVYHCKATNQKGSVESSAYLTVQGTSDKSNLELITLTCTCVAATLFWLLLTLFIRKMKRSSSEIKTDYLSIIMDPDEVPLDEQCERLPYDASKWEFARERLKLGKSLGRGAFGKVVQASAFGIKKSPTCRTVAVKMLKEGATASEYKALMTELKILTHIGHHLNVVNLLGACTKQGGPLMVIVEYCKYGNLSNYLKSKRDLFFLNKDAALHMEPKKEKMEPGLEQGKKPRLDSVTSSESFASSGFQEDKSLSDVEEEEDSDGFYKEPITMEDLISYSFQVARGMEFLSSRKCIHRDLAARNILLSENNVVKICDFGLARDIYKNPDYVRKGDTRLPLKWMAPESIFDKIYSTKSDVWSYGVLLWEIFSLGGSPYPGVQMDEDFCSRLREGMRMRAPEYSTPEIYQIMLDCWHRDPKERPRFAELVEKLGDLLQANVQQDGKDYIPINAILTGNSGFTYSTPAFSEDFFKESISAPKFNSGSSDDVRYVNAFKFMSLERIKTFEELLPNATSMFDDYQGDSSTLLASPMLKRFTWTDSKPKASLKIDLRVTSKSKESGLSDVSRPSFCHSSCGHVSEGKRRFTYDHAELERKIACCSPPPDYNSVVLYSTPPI
Chain of Tyrosine-protein kinase Lck (Homo sapiens) (P06239 2-509 limits assumed): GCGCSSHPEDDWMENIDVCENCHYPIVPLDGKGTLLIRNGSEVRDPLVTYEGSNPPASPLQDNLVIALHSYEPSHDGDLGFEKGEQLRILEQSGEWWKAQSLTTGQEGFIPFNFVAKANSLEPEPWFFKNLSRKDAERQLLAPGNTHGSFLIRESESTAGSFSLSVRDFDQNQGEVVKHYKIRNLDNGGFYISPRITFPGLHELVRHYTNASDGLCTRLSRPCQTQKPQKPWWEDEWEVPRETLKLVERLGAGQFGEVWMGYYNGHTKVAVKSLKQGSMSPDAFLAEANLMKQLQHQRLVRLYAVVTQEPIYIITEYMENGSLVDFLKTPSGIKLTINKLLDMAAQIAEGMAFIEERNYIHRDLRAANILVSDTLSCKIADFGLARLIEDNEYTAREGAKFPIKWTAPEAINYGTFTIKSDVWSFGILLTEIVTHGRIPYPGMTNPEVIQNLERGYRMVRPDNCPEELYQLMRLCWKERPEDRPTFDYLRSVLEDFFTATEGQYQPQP

IC50 (Aurora kinase A) [nM]	GI50 (HCT-116 [5]) [nM]	Structure (SMILES)	also measured
17	540	COc1ccc(-c2nc3c(N4CCN(Cc5cc(C)on5)CC4)c(Br)cnc3[nH]2)cc1	solubility [1]: < 10 µg/mL; Papp [2]: 6 ×10⁻⁶ cm/s; inhibition (INH) [3]: Not Active; bioavailability [4]: 23%; remaining at 0.5 h, 10 µM [6]: > 50%
4	320	COc1ccc(-c2nc3c(N4CCN(Cc5cscn5)CC4)c(Br)cnc3[nH]2)cc1	remaining at 0.5 h, 10 µM [6]: 45%
8	400	COc1ccc(-c2nc3c(N4CCN(Cc5cncnc5)CC4)c(Br)cnc3[nH]2)cc1	–
85	900	CC(c1ccncc1)N1CCN(c2c(Br)cnc3[nH]c(-c4ccc(N(C)C)cc4)nc23)CC1 (stereo not given)	–
14	230	Cc1cc(CN2CCN(c3c(Br)cnc4nc(-c5ccc(CN(C)C)cc5)[nH]c34)CC2)no1	remaining at 0.5 h, 10 µM [6]: > 50%
55	650	Cc1cc(CN2CCN(c3c(Cl)cnc4nc(-c5ccc(CN)cc5)[nH]c34)CC2)no1	remaining at 0.5 h, 10 µM [6]: > 50%
32	1500	COc1ccc(-c2nc3c(N4CCN(Cc5nccn5C)CC4)c(Br)cnc3[nH]2)cc1	–
10	78	Cc1cc(CN2CCN(c3c(Br)cnc4nc(-c5ccc(CN6CCNCC6)cc5)[nH]c34)CC2)no1	solubility [1]: 870 µg/mL (≈ 1580 µM); remaining at 0.5 h, 10 µM [6]: > 50%
258	–	CN(C)c1ccc(-c2nc3c(N4CCN(c5ccccc5)CC4)c(Br)cnc3[nH]2)cc1	–
–	450	Cc1cc(CN2CCN(c3c(Cl)cnc4[nH]c(-c5ccc(Cn6cccn6)cc5)nc34)CC2)no1	–
6	420	Brc1cnc2[nH]c(-c3ccc(CN4CCOCC4)cc3)nc2c1N1CCN(Cc2cncnc2)CC1	–
650	830	COc1ccc(-c2nc3c(N4CCN(CC5CC5)CC4)c(Br)cnc3[nH]2)cc1	–
210	970	CC(C)CN1CCN(c2c(Br)cnc3[nH]c(-c4ccc(N(C)C)cc4)nc23)CC1	–
55	700	CN(C)c1ccc(-c2nc3c(N4CCN(Cc5ccncc5)CC4)c(Br)cnc3[nH]2)cc1	–
118	1650	CN(C)c1ccc(-c2nc3c(N4CCN(CC(=O)Nc5cccnc5)CC4)c(Br)cnc3[nH]2)cc1	–
81	3000	O=C(CN1CCN(c2c(Br)cnc3[nH]c(-c4ccccc4)nc23)CC1)Nc1nccs1	–

Continued, compound first:

Structure (SMILES)	IC50 (Aurora kinase A) [nM]	GI50 (HCT-116 [5]) [nM]	also measured
Cc1cc(CN2CCN(c3c(Br)cnc4[nH]c(-c5ccc(Cn6cccn6)cc5)nc34)CC2)no1	–	120	–
COc1ccc(-c2nc3ncc(C4CC4)c(N4CCN(CC(=O)Nc5nccs5)CC4)c3[nH]2)cc1	53	2500	–
CN(C)c1ccc(-c2nc3c(N4CCN(CC(=O)Nc5nccs5)CC4)c(Br)cnc3[nH]2)cc1	55	480	–
Cc1cc(CN2CCN(c3c(Cl)cnc4nc(-c5ccc(OCCO)cc5)[nH]c34)CC2)no1	20	450	remaining at 0.5 h, 10 µM [6]: > 50%
CN(C)c1ccc(-c2nc3c(N4CCN(CC(=O)Nc5nccs5)CC4)c(C#N)cnc3[nH]2)cc1	50	1030	–
COc1ccc(-c2nc3c(N4CCN(Cc5cccnc5)CC4)c(Br)cnc3[nH]2)cc1	9	1150	–
CN(C)c1ccc(-c2nc3c(N4CCN(CC(=O)Nc5ccccc5)CC4)c(Cl)cnc3[nH]2)cc1	115	2550	–
Cc1cc(CN2CCN(c3c(Br)cnc4[nH]c(-c5ccc(CN)cc5)nc34)CC2)no1	10	240	remaining at 0.5 h, 10 µM [6]: > 50%
CN(C)c1ccc(-c2nc3c(N4CCN(C(=O)Nc5ccccc5)CC4)c(Br)cnc3[nH]2)cc1	277	10000	–
CN(C)c1ccc(-c2nc3c(N4CCN(CC(=O)Nc5cccc(Cl)c5)CC4)c(Cl)cnc3[nH]2)cc1	75	2670	–
CN(C)Cc1ccc(-c2nc3c(N4CCN(CC(=O)Nc5nccs5)CC4)c(Br)cnc3[nH]2)cc1	16	1000	–
Cc1cc(CN2CCN(c3c(Br)cnc4[nH]c(-c5ccc(CN6CCOCC6)cc5)nc34)CC2)no1	2	60	–
O=C(CN1CCN(c2c(Cl)cnc3[nH]c(-c4ccc(CN5CCOCC5)cc4)nc23)CC1)Nc1nccs1	3	360	–
CC(c1ccccc1)N1CCN(c2c(Cl)cnc3[nH]c(-c4ccc(N(C)C)cc4)nc23)CC1 (stereo not given)	79	900	–
COc1ccc(-c2nc3c(N4CCN(CC(=O)Nc5nccs5)CC4)c(Cl)cnc3[nH]2)cc1	52	900	–
O=C(CN1CCN(c2c(Br)cnc3[nH]cnc23)CC1)Nc1nccs1	517	–	inhibition of growth at 10 µM (HCT-116 [7]): 40%
CN(C)c1ccc(-c2nc3c(N4CCNCC4)c(Br)cnc3[nH]2)cc1	365	950	–
CN(C)c1ccc(-c2nc3c(N4CCN(S(=O)(=O)c5ccccc5)CC4)c(Br)cnc3[nH]2)cc1	178	–	–
Brc1cnc2[nH]c(-c3ccc(CN4CCOCC4)cc3)nc2c1N1CCN(Cc2cccnc2)CC1	–	280	solubility [1]: 30 µg/mL (≈ 54.7 µM); bioavailability [4]: 13%
Cc1cc(CN2CCN(c3c(Br)cnc4[nH]c(-c5ccc(OCCO)cc5)nc34)CC2)no1	30	280	solubility [1]: 10 µg/mL (≈ 19.5 µM); remaining at 0.5 h, 10 µM [6]: > 50%
Cc1cc(CN2CCN(c3c(Br)cnc4[nH]c(-c5ccc(N6CCNCC6)cc5)nc34)CC2)no1	–	100	remaining at 0.5 h, 10 µM [6]: > 50%
Cn1ccnc1CN1CCN(c2c(Br)cnc3[nH]c(-c4ccc(CN5CCOCC5)cc4)nc23)CC1	30	1500	–
Clc1ccc(CN2CCN(c3c(Br)cnc4[nH]c(-c5ccc(CN6CCOCC6)cc5)nc34)CC2)cc1	–	600	inhibition [8]: 60%; inhibition [9]: 5%; inhibition [10]: 35%; inhibition [11]: 33%; inhibition [12]: 3%; inhibition at 10 µM (hERG (KCNH2)): 53%; inhibition [13]: 4%; inhibition [14]: 15%; inhibition [15]: 35%; inhibition [16]: 8%; inhibition [17]: 98%
Brc1cnc2[nH]c(-c3ccc(CN4CCOCC4)cc3)nc2c1N1CCN(Cc2cscn2)CC1	6	–	–

From ChEMBL document CHEMBL1155446, “Imidazo[4,5-b]pyridine derivatives as inhibitors of Aurora kinases: lead optimization studies toward the identification of an orally bioavailable preclinical development candidate” (J Med Chem, 2010)
